Measurements from patent publication US6660310B2, “Method to infuse fresh fruits and vegetables with an agent” (American Moxie LLC, priority 2000, dated 2003).
Peptide text beside a SMILES is read from it.

Key:
[1] = Taste test: sweetness of materials infused with sweetening agents; conditions: apples, strawberries
Text: Apples, strawberries, carrots and celery were infused with either aspartame or saccharin with standard procedures, as described above, and sweetness was compared with untreated control. […] Clearly an optimal amount of sweetening agent would be lower. The taste test was repeated using a 0.2% concentration of each sweetening agent with the four biological materials.

[2] = target: GabaA, Benzodiazepine (Central) Site; test: GabaA, Benzodiazepine (Central) Site Binding Assay; set-up: species or system Bovine
[3] = Taste test: taste or "heat" of materials infused with capsaicin; conditions: carrots, apples and squash infused with 2% capsaicin
Text: Carrots, apples and squash were infused with 2% capsaicin (the active constituent of cayenne pepper) with standard procedures, as described above, and the taste or “heat” of the infused materials was compared with untreated control materials.

[4] = extracts from Experiment 5; tested only in apple and strawberry
[5] = carrots and celery infused with standard procedures
[6] = carrots and celery, 0.2% concentration of sweetening agent

| SMILES | sweetness compared with untreated control [1, 5] | sweetness compared with untreated control [1, 6] | also measured |
| --- | --- | --- | --- |
| COC(=O)[C@H](Cc1ccccc1)NC(=O)[C@@H](N)CC(=O)O [aspartame] (H-Asp-Phe-OMe) | markedly and significantly sweeter | significantly enhanced over the untreated controls | – |
| CN1C(=O)CN=C(c2ccccc2F)c2cc([N+](=O)[O-])ccc21 [[^3H] Flunitrazepam] | – | – | Kd ([2]; assay characteristic of the radioligand, bovine cortical membranes, read-out: KD (binding affinity)): 1.4 nM |
| COc1cc(CNC(=O)CCCCC=CC(C)C)ccc1O [capsaicin, 8-methyl-N-vanillyl-6-nonenamide] | – | – | taste or "heat" compared with untreated control [3]: markedly and significantly “hotter” |
| O=C1NS(=O)(=O)c2ccccc21 [saccharin] | markedly and significantly sweeter | significantly enhanced over the untreated controls | – |
| CN1C(=O)CN=C(c2ccccc2F)c2cc([N+](=O)[O-])ccc21 [Flunitrazepam, flunitrazepam] | – | – | specific binding of extract containing the infused agent ([2]; extracts from Experiment 5, tested only in celery and tomato): demonstrated specific binding |
| C[C@]1(O)CC[C@H]2[C@@H]3CCC4=CC(=O)CCC4=C3C=C[C@@]21C [Methyltrienolone, methyltrienolone] | – | – | specific binding of extract containing the infused agent [4]: demonstrated specific binding |
